# Like-named read-outs stand apart in the source and are kept apart here.
# What was measured:
# rat cortical neurons = assay: Neurite network length of rat cortical primary neurons under high glucose; type: cell-based; conditions: 45 mmol/L glucose, 24 hours, MAP-2 staining
# Description: Rat cortical neurons are cultured as described by Singer et al.. Briefly, pregnant female rats of 15 days gestation are killed by cervical dislocation (rats Wistar) and the foetuses are removed from the uterus. The cortex is then removed and placed in ice-cold medium of Leibovitz (L15) containing 2% of Penicillin 10.000 U/mL and Streptomycin 10 mg/mL and 1% of bovine serum albumin (BSA). Cortices are dissociated by trypsin for 20 min at 37° C. (0.05%). The reaction is stopped by the addition of Dulbecco's modified Eagle's medium (DMEM) containing DNasel grade II and 10% of foetal calf serum (FCS). Cells are then mechanically dissociated by 3 serial passages through a 10 mL pipette and centrifuged at 515×g for 10 min at +4° C. The supernatant is discarded and the pellet of cells is re-suspended in a defined culture medium consisting of Neurobasal supplemented with B27 (2%), L-glutamine (0.2 mM), 2% of PS solution and 10 ng/mL of BDNF. Viable cells are counted in a Neubauer cytometer using the trypan blue exclusion test. The cells are seeded at a density of 30 000 cells/well in 96 well-plates (wells were pre-coated with poly-L-lysine (10 μg/mL)) and were cultured at +37° C. in a humidified air (95%)/CO2 (5%) atmosphere.
# After 10 days of culture, cells are incubated with drugs and their combinations. After 1 hour, medium glucose concentration is raised to 45 mmol/L glucose in defined medium without BDNF but together with tested compound. Cortical neurons are so cultured for 24 hours. BDNF (10 ng/mL) is used as a positive (neuroprotective) control. Three independent cultures were performed per condition, 6 wells per condition.
# After 24 hours of culture in high glucose conditions, the supernatant is taken off and the cortical neurons are fixed by a cold solution of ethanol (95%) and acetic acid (5%) for 5 min. After permeabilization with 0.1% of saponin, cells are blocked for 2 hours with PBS containing 1% foetal calf serum. Then, cells are incubated with monoclonal antibody anti microtubule-associated-protein 2 (MAP-2; Sigma). This antibody stains specifically cell bodies and neurites of neurons. […] Nuclei of neurons are labelled by a fluorescent marker (Hoechst solution, Sigma).
# Per well, 10 pictures are taken using InCell Analyzer™ 1000 (GE Healthcare) with 20× magnification. All pictures are taken in the same conditions. Analysis of the neurite network is done using Developer software (GE Healthcare) in order to assess the total length of neurite network.
# [1] = tested on: sensory neurons and Schwann cells co-culture; assay: Myelination in co-culture of sensory neurons and Schwann cells under high glucose (MBP expression); type: cell-based, rat; parameters: key: +: significant improvement in length of myelinated axons when compared to non-treated conditions as assessed by MBP expression; conditions: 45 mmol/L glucose, 50 μg/mL ascorbic acid, MBP staining, 5, 9, 10, 11 and 13 days
# Description: A model of co-culture was used as an in vitro model of diabetes. This model of myelination consists in co-culturing sensory neurons and Schwann cells from Wistar rats dissociated dorsal root ganglia (DRG).
# The aim of this study is to assess the effect of tested compounds and compound combinations on myelination process under high glucose conditions mimicking diabetes. The effect of the tested compounds on myelination, either in high glucose concentration or not, is assessed by evaluating Myelin Basic Protein (MBP) expression in presence of ascorbic acid.
# Fifteen days gestation pregnant female rats are killed by cervical dislocation. The embryos are removed from the uterus and are at similar foetal stage of development.
# Rat DRG are cultured as previously described by Cosgaya et al. and Rangaraju et al..
# Each embryo is dispatched on numerating petri dish (35 mm of diameter). DRG of each embryo is collected, placed in ice-cold medium of Leibovitz (L15, Invitrogen). At the end of the dissection, DRG of TGM are pooled and dissociated by trypsinization (trypsin EDTA, 0.05%; Invitrogen) for 20 min at 37° C. The reaction is stopped by addition of DMEM containing 10% of foetal bovine serum (FBS) in the presence of DNAase I (Roche). The suspension is triturated with a 10 mL pipette. Cells are then centrifuged at 350×g for 10 min at room temperature. The pellet of dissociated cells is resuspended in neurobasal medium (Invitrogen) containing 2% of B27 (Invitrogen), 1% of penicillin-streptomycin (Invitrogen), 1% de L glutamine and 50 ng/mL NGF (Sigma). This medium is the neuronal medium. Viable cells are counted in a Neubauer cytometer using the trypan blue exclusion test (Sigma) and seeded on the basis of 10 000 cells per well in 96 well-plates (Greiner) treated with poly-L-lysine. The plates are maintained at 37° C. in a humidified incubator, in an atmosphere of air (95%)-CO2 (5%). Half of the standard neuronal culture medium is changed every other day. The cultures are maintained in standard neurobasal medium for 7 days to allow Schwann cells to populate the sensory neuron neurites. On day 7, the cultures are fed with standard neuronal medium supplemented or not with 50 μg/mL ascorbic acid in order to initiate basal lamina formation and myelination.
# On Day 7, the Following Tested Compounds (Alone or in Combination) Listed in Table 5 are added in the medium with 50 μg/mL ascorbic acid. Basal glucose in culture medium is 25 mmol/L, which is necessary for DRG neuron survival. To produce a hyperglycemic insult, 20 mmol/L additional glucose (total 45 mmol/L glucose) is added to the media for the period specified.
# The tested compounds are incubated for 5 different times: 5, 9, 10, 11 and 13 days.
# Three separate and independent cultures of DRG are done. These conditions are assessed in presence of ascorbic acid, 6 wells per condition. The solution ready to use of all tested compounds are extemporaneously prepared from a stock solution, stored at −20° C. This solution is prepared once a week. Half of the standard neuronal medium supplemented with tested compounds, ascorbic acid (each at the concentration 1×) and glucose are changed every other day.
# After 5, 9, 10, 11 and 13 days of incubation, cells are fixed by a cold solution of ethanol (95%) and acetic acid (5%) for 10 min. The cells are permeabilized and blocked with PBS containing 0.1% saponin and 10% goat serum for 15 min. Then, the cells are incubated with a specific marker of myelin: polyclonal antibody anti-myelin basic protein (MBP) antibody (Sigma 118K0431).
# Nuclei of neurons are labelled by a fluorescent marker (Hoechst solution, SIGMA ref B1155).
# Per well, 20 pictures are taken using InCell Analyzer™ 1000 (GE Healthcare) with 20× magnification. All images are taken in the same conditions. Analysis of total length of myelinated axons was automatically done (length and area around axons) using
# Developer software (GE Healthcare). All values will be expressed as mean+/−s.e.mean. […]
# [2] = tested on: DRG explants from STZ rats; assay: Neurite outgrowth from dorsal root ganglia explants from STZ rats; type: cell-based, rat
# [3] = spinal cord explants from diabetic rats cultured 24-48-72 hours with compound
Compound,"Protection of neurite network, rat cortical primary cell culture (rat cortical neurons)",Myelinated axon length [1],protecting DRG from apoptosis and/or improving neurite outgrowth [2],"Protection of neurite network, DRG explants from STZ rats [2, 3]","Protection of neurite network, DRG explants from STZ rats [2]"
C1COC(NC(C2CC2)C2CC2)=N1 [rilmenidine],+,+,particularly efficient,+,
CN(C)CC[C@@H](c1ccc(Br)cc1)c1ccccn1 [dexbrompheniramine],+,+,particularly efficient,+,
Nc1nc(N)c2nc(-c3ccccc3)c(N)nc2n1 [triamterene],+,+,particularly efficient,+,
CO[C@]12C[C@@H](COC(=O)c3cncc(Br)c3)CN(C)[C@@H]1Cc1cn(C)c3cccc2c13 [nicergoline],+,+,particularly efficient,+,
CC(C(O)c1ccc(O)cc1)N1CCC(Cc2ccccc2)CC1 (stereo not drawn) [ifenprodil],+,+,particularly efficient,+,
C[C@@H](NCCCc1cccc(C(F)(F)F)c1)c1cccc2ccccc12 [cinacalcet],+,+,particularly efficient,+,
CN/C(=N/CCSCc1nc[nH]c1C)NC#N [cimetidine],+,+,particularly efficient,+,
CCN(CC)C(=O)N1CCN(C)CC1 [diethylcarbamazine],+,+,particularly efficient,+,
NCC(CC(=O)O)c1ccc(Cl)cc1 (stereo not drawn) [baclofen],+,+,particularly efficient,,+
C[C@@H]1CC(=O)NN=C1c1ccc(NN=C(C#N)C#N)cc1 [levosimendan],+,+,particularly efficient,+,
Cc1ccc(C(=O)C(C)CN2CCCCC2)cc1 (stereo not drawn) [tolperisone],+,+,particularly efficient,+,
CC(=O)NCCCS(=O)(=O)O [acamprosate],+,+,particularly efficient,+,
CCN(CC)CCOCCOC(=O)C1(c2ccccc2)CCCC1 [carbetapentane],+,+,particularly efficient,+,
Cc1cccc(C)c1OCC(C)N (stereo not drawn) [mexiletine],+,+,particularly efficient,+,
Cc1cccc(Nc2ccncc2S(=O)(=O)NC(=O)NC(C)C)c1 [torasemide],+,+,particularly efficient,+,

# — patent US20170049777A1, “COMPOSITIONS, METHODS AND USES FOR THE TREATMENT OF DIABETIC NEUROPATHIES” (Pharnext, priority 2014, published 2017)
